According to PubChem BioAssay (NCI):
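Exposure lasted 48 hours, with cells grown in 96-well plates and compounds tested at five concentrations. GI50 is the concentration that inhibits growth by half. Definition used: TGI = concentration required for complete inhibition of growth.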

What was measured:
Assay in all cases: inhibition of tumour cell growth, NCI panel, 48 h
[1] = system: OVCAR-5 ovarian
[2] = system: ACHN renal
[3] = system: T-47D breast
[4] = system: HCT-15 colon
[5] = system: NCI-H522 lung
[6] = system: HCT-116 colon
[7] = system: LOX IMVI melanoma
[8] = system: SK-MEL-2 melanoma
[9] = system: SN12C renal
[10] = system: NCI-H226 lung

CCSCCC(N)C(=O)O (stereo not given)
TGI [1]: > 100 µM
TGI [2]: > 100 µM
TGI [3]: > 100 µM
TGI [4]: > 100 µM
TGI [5]: > 100 µM
TGI [6]: > 100 µM
TGI [7]: > 100 µM
TGI [8]: > 100 µM
TGI [9]: > 100 µM
TGI [10]: > 100 µM

CCOC(=O)CSc1nc(N)c2c(-c3ccc(OC)c(OC)c3)c3c(nc2n1)CCCC3
TGI [1]: > 100 µM
TGI [2]: > 100 µM
TGI [3]: > 100 µM
TGI [4]: > 100 µM
TGI [6]: > 100 µM
TGI [7]: > 100 µM
TGI [9]: > 100 µM

CC(=O)Nc1cc([As](=O)(O)O)ccc1O
TGI [1]: > 100 µM
TGI [2]: > 100 µM
TGI [3]: > 100 µM
TGI [4]: > 100 µM
TGI [5]: > 100 µM
TGI [6]: > 100 µM
TGI [7]: > 100 µM
TGI [8]: > 100 µM
TGI [9]: > 100 µM
TGI [10]: > 100 µM

CCN(CC)CC(C)Nc1ccc([N+](=O)[O-])c2sc3ccccc3c(=O)c12 (stereo not given)
GI50 [1]: 3.63 µM
TGI [1]: > 100 µM
GI50 [2]: 0.895 µM
TGI [2]: 4.3 µM
GI50 [3]: 2.05 µM
TGI [3]: 13.2 µM
GI50 [4]: 1.6 µM
TGI [4]: 23.8 µM
GI50 [5]: 1.45 µM
TGI [5]: 3.91 µM
GI50 [6]: 1.41 µM
TGI [6]: 4.49 µM
GI50 [7]: 1.02 µM
TGI [7]: 2.39 µM
GI50 [8]: 1.94 µM
TGI [8]: 5.04 µM
GI50 [9]: 1.93 µM
TGI [9]: 23.5 µM
GI50 [10]: 1.09 µM
TGI [10]: 3.72 µM

ONc1ncnc2nc[nH]c12
TGI [1]: > 100 µM
TGI [2]: > 100 µM
TGI [4]: > 100 µM
TGI [5]: > 100 µM
TGI [6]: > 100 µM
TGI [8]: > 100 µM
TGI [10]: > 100 µM

O=C(CCCCCCC(=O)Nc1ccc(N(CCCl)CCCl)cc1)NO
GI50 [1]: 2.56 µM
TGI [1]: 30.6 µM
GI50 [2]: 1.09 µM
TGI [2]: 4.86 µM
GI50 [3]: 1.63 µM
TGI [3]: 7.37 µM
GI50 [4]: 18.9 µM
TGI [4]: > 100 µM
GI50 [5]: 0.474 µM
TGI [5]: 2.03 µM
GI50 [6]: 1.97 µM
TGI [6]: 12.9 µM
GI50 [7]: 1.34 µM
TGI [7]: 3.78 µM
GI50 [9]: 0.8 µM
TGI [9]: 18.6 µM
GI50 [10]: 4.01 µM
TGI [10]: 21 µM

Cc1nc(N)nc(N)c1-c1ccc(Cl)c(Cl)c1
TGI [1]: > 100 µM
TGI [2]: > 100 µM
TGI [3]: > 100 µM
TGI [4]: > 100 µM
TGI [5]: 34.8 µM
TGI [6]: > 100 µM
TGI [7]: > 100 µM
TGI [8]: > 90.6 µM
TGI [9]: > 100 µM
TGI [10]: > 100 µM

COc1cc(C2C(C(=O)O)=C(CO)Oc3cc4c(cc32)OCO4)cc(OC)c1O (stereo not given)
TGI [2]: > 100 µM
TGI [4]: > 100 µM
TGI [6]: > 100 µM
TGI [7]: > 100 µM
TGI [9]: > 100 µM

CCS(=O)(=O)Nc1ccc(Nc2c3ccccc3nc3ccccc23)c(OC)c1
TGI [1]: 19.4 µM
TGI [4]: 5.11 µM
TGI [5]: 16.1 µM
TGI [6]: 6.94 µM
TGI [7]: 4.26 µM
TGI [8]: 18.8 µM
TGI [9]: 3.86 µM
TGI [10]: 3.19 µM

CNC(=O)OC(C)CN1c2ccccc2Sc2ccc(Cl)cc21 (stereo not given)
TGI [1]: > 10 µM
TGI [2]: > 10 µM
TGI [3]: > 10 µM
TGI [4]: > 10 µM
TGI [5]: > 10 µM
TGI [6]: > 10 µM
TGI [7]: > 10 µM
TGI [8]: > 10 µM
TGI [9]: > 10 µM
TGI [10]: > 10 µM

C[C@]12CC[C@@H]3c4ccc(OP(=O)(O)O)cc4CC[C@H]3[C@@H]1CCC2=O
TGI [1]: > 100 µM
TGI [2]: > 100 µM
TGI [3]: > 100 µM
TGI [4]: > 100 µM
TGI [5]: > 100 µM
TGI [6]: > 100 µM
TGI [7]: > 100 µM
TGI [8]: > 100 µM
TGI [9]: > 100 µM

CC1SC(c2ccccc2)N(CCc2cccs2)C1=O (stereo not given)
GI50 [1]: 10.3 µM
TGI [1]: 27 µM
GI50 [2]: 4.69 µM
TGI [2]: 17.9 µM
GI50 [3]: 2.16 µM
TGI [3]: 18.7 µM
GI50 [4]: 3.86 µM
TGI [4]: 18.8 µM
GI50 [5]: 1.89 µM
TGI [5]: 8.76 µM
GI50 [6]: 2.99 µM
TGI [6]: 12.3 µM
GI50 [7]: 2.9 µM
TGI [7]: 13.7 µM
GI50 [8]: 3.42 µM
TGI [8]: 14.7 µM
GI50 [9]: 5.43 µM
TGI [9]: 20.1 µM
GI50 [10]: 6.15 µM
TGI [10]: 26.4 µM

Cc1cccc2nc3c(C(=O)NCCN(C)C)cccc3cc12
TGI [1]: 6.59 µM
TGI [4]: 6.68 µM
TGI [6]: 6.21 µM
TGI [7]: 4.76 µM
TGI [8]: 3.46 µM
TGI [9]: 5.98 µM
TGI [10]: 4.65 µM

COc1ccc2nc(N/N=C/C(C)=N/Nc3cc(C)c4cc(OC)ccc4n3)cc(C)c2c1
TGI [1]: 49.5 µM
TGI [2]: 55.3 µM
TGI [3]: > 73.6 µM
TGI [4]: 25.1 µM
TGI [5]: 40.3 µM
TGI [6]: 28.6 µM
TGI [7]: 54.8 µM
TGI [8]: > 82.1 µM
TGI [9]: 51.4 µM
TGI [10]: 53.3 µM

O=C(N/N=C(/c1ccccc1)C(F)(F)F)c1ccncc1
TGI [1]: > 100 µM
TGI [3]: > 100 µM
TGI [4]: > 100 µM
TGI [5]: > 100 µM
TGI [6]: > 100 µM
TGI [8]: > 100 µM
TGI [9]: > 100 µM
TGI [10]: > 100 µM

CCOC(=O)c1nc2ccc(Cl)cc2c2c1Cc1ccccc1-2
TGI [1]: > 100 µM
TGI [2]: > 100 µM
TGI [4]: > 100 µM
TGI [5]: > 100 µM
TGI [6]: > 100 µM
TGI [7]: > 100 µM
TGI [8]: > 100 µM
TGI [9]: > 100 µM
TGI [10]: > 100 µM

CCCc1[nH]c(SCCCCCCCCSc2nc(-c3ccc(F)cc3)c(CCC)[nH]2)nc1-c1ccc(F)cc1
TGI [1]: > 100 µM
TGI [2]: > 100 µM
TGI [4]: > 100 µM
TGI [6]: > 100 µM
TGI [7]: > 100 µM
TGI [8]: > 100 µM
TGI [9]: > 100 µM

N=c1c2c(C(N)=O)cn(C3OC(CO)C(O)C3O)c2ncn1O (stereo not given)
TGI [1]: 1.3 µM
TGI [2]: 0.311 µM
TGI [3]: 3.69 µM
TGI [4]: 0.388 µM
TGI [5]: > 20.4 µM
TGI [6]: 0.596 µM
TGI [7]: 0.438 µM
TGI [8]: 2.33 µM
TGI [9]: 0.444 µM
TGI [10]: 1.57 µM

N=C(N)c1ccc(-c2ccc(-c3cc(Cl)cc(Cl)c3)o2)nc1
GI50 [1]: 1.73 µM
TGI [1]: 3.43 µM
GI50 [2]: 1.81 µM
TGI [2]: 3.36 µM
GI50 [4]: 1.8 µM
TGI [4]: 3.46 µM
GI50 [5]: 1.98 µM
TGI [5]: 3.86 µM
GI50 [7]: 1.77 µM
TGI [7]: 3.41 µM
GI50 [8]: 2.09 µM
TGI [8]: 3.9 µM
GI50 [9]: 1.62 µM
TGI [9]: 3.16 µM
GI50 [10]: 2.13 µM
TGI [10]: 5.19 µM

COc1ccc2nc(-c3ccc(-c4noc(-c5cc(OC)c(OC)c(OC)c5)n4)cc3)[nH]c2c1
GI50 [1]: 16.7 µM
TGI [1]: 53.8 µM
GI50 [2]: 28.2 µM
TGI [2]: > 100 µM
GI50 [3]: 14.7 µM
TGI [3]: 35.9 µM
GI50 [4]: 1.49 µM
TGI [4]: 13.3 µM
GI50 [5]: 6.89 µM
TGI [5]: 45.3 µM
GI50 [6]: 1.9 µM
TGI [6]: 10.7 µM
GI50 [7]: 13.3 µM
TGI [7]: 34.6 µM
GI50 [8]: 18.9 µM
TGI [8]: 51.1 µM
GI50 [9]: 13.2 µM
TGI [9]: 31.3 µM
GI50 [10]: 22.7 µM
TGI [10]: 81.4 µM

O=S(=O)(O)c1ccc2cccc(N=Nc3c(O)ccc4ccccc34)c2c1
TGI [1]: > 100 µM
TGI [2]: > 100 µM
TGI [3]: > 100 µM
TGI [4]: > 100 µM
TGI [5]: > 100 µM
TGI [6]: > 100 µM
TGI [8]: > 100 µM
TGI [9]: > 100 µM
TGI [10]: > 100 µM

CN(C)CC(=O)Nc1ccc(Cn2nnc3c2C(=O)c2nnn(Cc4ccc(NC(=O)CN(C)C)cc4)c2C3=O)cc1
GI50 [1]: 0.234 µM
TGI [1]: 0.578 µM
GI50 [2]: 0.335 µM
TGI [2]: 1.23 µM
GI50 [3]: 0.166 µM
TGI [3]: 0.449 µM
GI50 [6]: 0.0843 µM
TGI [6]: 0.275 µM
GI50 [10]: 0.209 µM
TGI [10]: 0.444 µM
